Patent US20090220626A1 (priority 2005, published 2009)

Biological target: T1, human recombinant CYP2A6 (Homo sapiens, UniProt P11509)
T1 construct: purchased
T1 sequence (P11509 1-494): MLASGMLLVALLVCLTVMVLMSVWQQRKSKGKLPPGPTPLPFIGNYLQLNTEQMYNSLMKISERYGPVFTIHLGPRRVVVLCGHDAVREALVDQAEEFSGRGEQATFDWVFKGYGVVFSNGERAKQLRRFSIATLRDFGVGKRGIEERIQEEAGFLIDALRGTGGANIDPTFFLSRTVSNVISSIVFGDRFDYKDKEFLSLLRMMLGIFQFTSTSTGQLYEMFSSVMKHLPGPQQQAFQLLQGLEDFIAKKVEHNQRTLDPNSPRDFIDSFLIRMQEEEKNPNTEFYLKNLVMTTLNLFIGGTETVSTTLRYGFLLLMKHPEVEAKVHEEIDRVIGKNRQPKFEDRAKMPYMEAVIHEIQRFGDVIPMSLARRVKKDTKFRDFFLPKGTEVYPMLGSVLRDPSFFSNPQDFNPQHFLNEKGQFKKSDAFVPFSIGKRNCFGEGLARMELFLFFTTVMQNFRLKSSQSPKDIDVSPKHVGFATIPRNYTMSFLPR
Assay: Inhibition of nicotine metabolism in CYP2A6 Supersomes
Type: biochemical
Conditions: 0, 1 and 100 μM; nicotine 100 μM, 15 minutes at 37° C.
Protocol: Samples containing 0, 5, 50, or 500 μM of GSE or Capsule were prepared as described in Example 4. Each sample was incubated with CYP2A6 Supersomes (human recombinant CYP2A6 in an artificial system comprising requisite factors for sample stability and function), with 20 pmol/ml nicotine at 100 μM, for 15 minutes at 37° C.
Sample containing 0, 1 and 100 μM of cytisine, a nicotine agonist, were prepared by extraction in ddH2O pH 4.1, for 2 hours at room temperature with continuous vortexing. The extraction was done at a concentration of 47 mg/ml. The samples were incubated with CYP2A6 Supersomes with 20 pmmol/ml of nicotine at 100 μM for 15 minutes at 37° C.

## O=c1cccc2n1C[C@@H]1CNC[C@H]2C1 [cytisine]
  inhibitory effect in CYP2A6 Supersomes (FIG. 7): does not have an inhibitory effect
